Source: the NIST ThermoML archive (doi:10.1021/je900124n)
“And” between values parts separate entries of the source, which are not always exact repeats. Equal entries are not always repeated.

Conditions: Fluid (supercritical or subcritical phases), Buoyancy - hydrostatic balance with magnetic suspension - two sinkers

CCC [propane]
Conditions	mass density
369.83 K, 4284.6 kPa	281.214 kg/m3 and 281.229 kg/m3 and 281.215 kg/m3
369.83 K, 4284.7 kPa	281.219 kg/m3 and 281.22 kg/m3
369.83 K, 4985.9 kPa	337.354 kg/m3 and 337.357 kg/m3
369.83 K, 4986 kPa	337.358 kg/m3 and 337.357 kg/m3
369.83 K, 4986.1 kPa	337.356 kg/m3 and 337.357 kg/m3
369.83 K, 8381.5 kPa	391.64 kg/m3
369.83 K, 8382 kPa	391.644 kg/m3 and 391.642 kg/m3 and 391.641 kg/m3
369.83 K, 8382.2 kPa	391.644 kg/m3
369.83 K, 8382.4 kPa	391.643 kg/m3
369.83 K, 8382.6 kPa	391.644 kg/m3
369.85 K, 311.85 kPa	4.5865 kg/m3 and 4.5866 kg/m3
369.85 K, 311.86 kPa	4.5867 kg/m3
369.85 K, 554.46 kPa	8.3301 kg/m3 and 8.3303 kg/m3
369.85 K, 927.78 kPa	14.4328 kg/m3 and 14.4326 kg/m3
369.85 K, 927.79 kPa	14.4329 kg/m3
369.85 K, 1387.4 kPa	22.6395 kg/m3 and 22.6384 kg/m3 and 22.6393 kg/m3
369.85 K, 1387.5 kPa	22.64 kg/m3 and 22.6401 kg/m3
369.85 K, 2120.4 kPa	37.8404 kg/m3 [middle of 5 runs]
369.85 K, 2871.7 kPa	57.8231 kg/m3
369.85 K, 2871.8 kPa	57.8298 kg/m3 and 57.8251 kg/m3
369.85 K, 3827.6 kPa	100.815 kg/m3 and 100.816 kg/m3
369.85 K, 3827.7 kPa	100.817 kg/m3
369.85 K, 4188.1 kPa	146.906 kg/m3
369.85 K, 4188.2 kPa	146.91 kg/m3
369.85 K, 4188.3 kPa	146.915 kg/m3 and 146.912 kg/m3
369.85 K, 4188.4 kPa	146.917 kg/m3
369.85 K, 4241.5 kPa	177.435 kg/m3
369.85 K, 4241.8 kPa	177.526 kg/m3 and 177.58 kg/m3 and 177.506 kg/m3
369.85 K, 4241.9 kPa	177.65 kg/m3
369.85 K, 4248.2 kPa	218.49 kg/m3 and 218.749 kg/m3 and 220.705 kg/m3
369.85 K, 4248.3 kPa	224.686 kg/m3 and 220.268 kg/m3
369.85 K, 4248.4 kPa	235.513 kg/m3 and 235.434 kg/m3
369.85 K, 4248.6 kPa	231.541 kg/m3 and 236.898 kg/m3
369.85 K, 4258.6 kPa	265.216 kg/m3 and 265.238 kg/m3
369.85 K, 4258.7 kPa	265.211 kg/m3
369.85 K, 4372.9 kPa	299.086 kg/m3
369.85 K, 4373 kPa	299.075 kg/m3
369.85 K, 4373.1 kPa	299.089 kg/m3
369.85 K, 4373.2 kPa	299.082 kg/m3
369.85 K, 5012.2 kPa	338.098 kg/m3
369.85 K, 5012.3 kPa	338.097 kg/m3
369.85 K, 5012.5 kPa	338.099 kg/m3
369.85 K, 5012.6 kPa	338.102 kg/m3
369.85 K, 5520.1 kPa	352.211 kg/m3
369.85 K, 5520.4 kPa	352.212 kg/m3
369.86 K, 554.46 kPa	8.3303 kg/m3 and 8.3302 kg/m3
369.86 K, 927.79 kPa	14.4327 kg/m3 and 14.4326 kg/m3
369.86 K, 4248.7 kPa	234.526 kg/m3
369.86 K, 4258.8 kPa	265.251 kg/m3 and 265.229 kg/m3
369.86 K, 5520.6 kPa	352.209 kg/m3 and 352.21 kg/m3
369.93 K, 4252.7 kPa	197.999 kg/m3 and 197.778 kg/m3
369.93 K, 4252.8 kPa	198.048 kg/m3 [middle of 4 runs]
369.93 K, 4252.9 kPa	197.901 kg/m3
369.93 K, 4253.8 kPa	232.64 kg/m3
369.93 K, 4253.9 kPa	232.539 kg/m3
369.93 K, 4254 kPa	231.862 kg/m3 [middle of 5 runs]
369.93 K, 4255 kPa	244.442 kg/m3 [middle of 4 runs]
369.93 K, 4255.1 kPa	244.551 kg/m3 and 244.556 kg/m3
369.93 K, 4255.2 kPa	244.584 kg/m3 and 244.7 kg/m3
369.95 K, 4248.2 kPa	177.636 kg/m3
369.95 K, 4248.3 kPa	177.67 kg/m3 and 177.631 kg/m3 and 177.707 kg/m3
369.95 K, 4248.4 kPa	177.657 kg/m3
369.95 K, 4255.7 kPa	214.994 kg/m3 and 214.812 kg/m3 and 213.928 kg/m3
369.95 K, 4255.8 kPa	214.794 kg/m3 and 214.471 kg/m3
369.95 K, 4256.2 kPa	231.389 kg/m3
369.95 K, 4256.3 kPa	231.791 kg/m3 and 231.342 kg/m3
369.95 K, 4256.4 kPa	233.445 kg/m3 and 231.817 kg/m3
369.95 K, 4268 kPa	265.209 kg/m3 and 265.217 kg/m3 and 265.193 kg/m3
369.95 K, 4268.2 kPa	265.233 kg/m3
369.96 K, 4268.2 kPa	265.215 kg/m3
370.03 K, 4259.9 kPa	197.023 kg/m3 and 197.111 kg/m3 and 197.064 kg/m3
370.03 K, 4260 kPa	197.186 kg/m3 [middle of 4 runs]
370.03 K, 4260.1 kPa	197.3 kg/m3
370.03 K, 4261.6 kPa	225.827 kg/m3 and 225.421 kg/m3 and 225.472 kg/m3
370.03 K, 4261.7 kPa	225.904 kg/m3 and 225.809 kg/m3 and 225.73 kg/m3
370.03 K, 4261.8 kPa	225.954 kg/m3 and 225.938 kg/m3
370.03 K, 4263.3 kPa	244.173 kg/m3 and 244.096 kg/m3
370.03 K, 4263.4 kPa	244.149 kg/m3 and 244.214 kg/m3
370.03 K, 4263.5 kPa	244.309 kg/m3 and 244.177 kg/m3 and 244.274 kg/m3
370.03 K, 4263.6 kPa	244.294 kg/m3
370.05 K, 4254.8 kPa	177.712 kg/m3 and 177.662 kg/m3
370.05 K, 4254.9 kPa	177.695 kg/m3 and 177.74 kg/m3 and 177.673 kg/m3
370.05 K, 4263.2 kPa	211.406 kg/m3 and 211.212 kg/m3
370.05 K, 4263.4 kPa	211.466 kg/m3 and 212.306 kg/m3 and 211.429 kg/m3
370.05 K, 4264.2 kPa	229.256 kg/m3 and 228.799 kg/m3
370.05 K, 4264.3 kPa	229.262 kg/m3 and 229.062 kg/m3
370.05 K, 4277.5 kPa	265.204 kg/m3 [middle of 4 runs]
370.05 K, 4277.6 kPa	265.242 kg/m3
370.06 K, 4264.4 kPa	229.28 kg/m3
370.32 K, 4281.1 kPa	196.636 kg/m3
370.32 K, 4281.2 kPa	196.743 kg/m3 and 196.797 kg/m3 and 196.727 kg/m3
370.32 K, 4281.3 kPa	196.729 kg/m3
370.33 K, 4212.1 kPa	146.689 kg/m3 and 146.681 kg/m3
370.33 K, 4212.2 kPa	146.684 kg/m3 [middle of 5 runs]
370.33 K, 4281.2 kPa	196.669 kg/m3
370.33 K, 4281.3 kPa	197.033 kg/m3 and 196.772 kg/m3
370.33 K, 4284.6 kPa	220.89 kg/m3
370.33 K, 4284.7 kPa	220.777 kg/m3 and 220.874 kg/m3 and 220.88 kg/m3
370.33 K, 4284.8 kPa	221.028 kg/m3 and 221.044 kg/m3 and 221.077 kg/m3
370.33 K, 4284.9 kPa	221.146 kg/m3
370.33 K, 4288.5 kPa	243.759 kg/m3 and 243.744 kg/m3 and 243.764 kg/m3
370.33 K, 4288.6 kPa	243.866 kg/m3 [middle of 5 runs]
370.35 K, 4214.3 kPa	147.029 kg/m3 [middle of 5 runs]
370.35 K, 4274.3 kPa	177.77 kg/m3 and 177.777 kg/m3
370.35 K, 4274.4 kPa	177.843 kg/m3 and 177.765 kg/m3 and 177.808 kg/m3
370.35 K, 4285.7 kPa	209.496 kg/m3 [middle of 4 runs]
370.35 K, 4285.8 kPa	209.659 kg/m3
370.35 K, 4287.8 kPa	228.296 kg/m3
370.35 K, 4287.9 kPa	227.176 kg/m3 and 227.342 kg/m3
370.35 K, 4288 kPa	227.25 kg/m3
370.35 K, 4305.9 kPa	265.204 kg/m3
370.35 K, 4306 kPa	265.214 kg/m3 and 265.193 kg/m3
370.35 K, 4306.1 kPa	265.222 kg/m3
370.36 K, 4288 kPa	227.268 kg/m3
370.36 K, 4306.1 kPa	265.199 kg/m3
370.82 K, 4238.2 kPa	146.893 kg/m3
